# Test results taken from patent publication US20150050410A1, “COMPOUNDS, COMPOSITIONS, AND METHODS FOR MODULATING SWEET TASTE” (Chromocell Corporation, priority 2013, published 2015).
# Experiments:
# [1] = test system: perception of the sweet taste of an aqueous solution of sweetener in humans; assay: Two-alternative forced choice "sip and spit" method (2AFC); assay type: in vivo
# Protocol: (§1) The taste test panelists used in the Examples 1-3 were selected using a sensory acuity screening program. Candidate taste panelists were recruited, with prescreening and personal interviews, and were assessed and for their ability to detect, recognize and differentiate basic taste attributes or mixtures thereof as part of a standardized acuity test. This included basic tastes of sweet, sour, salty, bitter and umami, as well as having the capacity to focus on specific aspects of sensory character such as ranking the various tastes perceived and identifying the basic tastes presented at threshold levels.
# The effect of the test compounds on the perception of the sweet taste of an aqueous solution of sweetener in humans was evaluated using a two-alternative forced choice “sip and spit” method (2AFC).
# The aqueous sweetener solutions were prepared by adding, fructose, sucrose or glucose (by weight), to water to achieve the desired concentration.
# Compounds were first prepared as a 500-fold concentrated stock solution in 100% ethanol. These concentrated stocks were then added to the aqueous sweetener solutions to result in a final ethanol concentration of 0.2%. The control (positive and negative) samples were also normalized to 0.2% ethanol. This level of ethanol was not seen to contribute any perceived sweetness.
# The 2AFC test used for compound evaluation was a blind and randomized test where taste panelists (n=15) evaluate a pair of sweetener solutions at a time one sample contains aqueous sweetener solution plus compound (i.e. test) while the other contains aqueous sweetener solution at higher concentration without compound (i.e. positive control). Each test sample was compared against a positive control. For example, if the test sample contained 1× sweetener concentration with compound (e.g. 5% sucrose with compound), the positive control sample contained a 1.1× sweetener concentration (e.g. 5.5% sucrose without compound).
# Panelists were instructed not to eat or drink (except water) for at least 1 h before the test. During the test, panelists were instructed to sip each sample, swirl it around their mouth and then expectorate. After tasting each sample in the pair, panelists were instructed to record the sample that is “sweeter” in taste. Panelists cleansed their palates by rinsing with water, eating a cracker and waiting for an interval of about 5 minutes. Each pair was tasted twice. All samples were tasted at ambient temperatures. Data were analyzed using binomial probabilities.
# Approximate levels of sweetness enhancement in column 5 of Table 2 were calculated as follows:
# Approximate levels of sweetness enhancement=Sweetener concentration of positive control surpassed by the test sample, divided by sweetener concentration for compound-containing sample (e.g. 1.15×=5.75% sucrose/5% sucrose).
# [2] = test system: perception of sweet taste, in an aqueous solution, in humans; assay: Inherent sweetness assessment, difference from control "sip and spit" method; assay type: in vivo; details: no sweetener
# Protocol: as §1
# The aqueous sucrose solutions were prepared by adding, sucrose (by weight), to water to achieve the desired concentration.
# Compounds were first prepared as a 500-fold concentrated stock solution in 100% ethanol. These concentrated stocks were then added to water to result in a final ethanol concentration of 0.2%. The control (including positive control) samples were also normalized to 0.2% ethanol. This level of ethanol was not seen to contribute any perceived sweetness.
# The intrinsic effect of test compounds on the perception of sweet taste, in an aqueous solution, in humans was evaluated using a difference from control “sip and spit” method employing a verbal category scale.
# In this method, panelists (n=12) evaluate one pair of samples at a time—one sample contains water plus compound (i.e. test) while the other contains water without compound (i.e. control). Panelists were instructed to first taste the un-blinded control followed by the test sample and asked to rate the size of sweetness difference between the test and control sample, using a 6 point verbal category scale:
# Verbal Category Scale • No difference • Slight difference • Slight/moderate difference • Moderate difference • Moderate/large difference • Very large difference […]
# [3] = test system: tasters; details: DuBois, et al., J. Med. Chem., 1981; cited from earlier work
smiles,measurement,setting,value
"COc1ccc(C2CC(=O)c3c(O)cccc3O2)cc1O (racemic) [Compound 1, 5-hydroxy-2-(3-hydroxy-4-methoxyphenyl)chroman-4-one]",Fold increase in perceived sweetness,"[1]; test sample 4% fructose, compound 25 ppm, positive control conc. / test sample conc.",>1.20X
same,Sweetener Concentration of positive control surpassed by test sample,"[1]; test sample 4% fructose, positive control fructose, compound 25 ppm",> 4.8%
same,Sweetener Concentration of positive control surpassed by test sample,"[1]; test sample 5% sucrose, positive control sucrose, compound 15 ppm",> 5.75%
same,Sweetener Concentration of positive control surpassed by test sample,"[1]; test sample 6.5% glucose, positive control glucose, compound 10, 25 ppm",> 7.48%
same,Correlated Inherent Sweetness Assessment,[2]; compound 10 ppm in water,0% sucrose
same,Correlated Inherent Sweetness Assessment,[2]; compound 15 ppm in water,0%-0.5%
same,Correlated Inherent Sweetness Assessment,[2]; compound 25 ppm in water,0%-0.5%
same,reported sweet flavor,[3],sweet flavor
